This is an account of results in US12257306B2, “Antiviral prodrugs and nanoformulations thereof” (Board of Regents of the University of Nebraska, priority 2018, dated 2025).

One test relates to HIV-1. Particulars: plasma, cited from earlier work; for 4×PA-IC90: four times protein-adjusted 90% inhibitory concentration.
In a further test the test system is HIV-1ADA. Put plainly: Antiretroviral efficacy of prodrugs by HIV reverse transcriptase (RT) activity in MDM. Format: cell-based. The conditions noted are these: MDM treated 8 hours, 0.01-1000 nM, challenged with HIV-1ADA MOI 0.01; FIG. 2A. The procedure:
The DTG prodrugs M3DTG and M4DTG were studied. First, antiretroviral efficacy was determined by measurement of HIV reverse transcriptase (RT) activity. To assess antiretroviral efficacy, monocyte-derived macrophage (MDM) were treated with either M3DTG or M4DTG for 8 hours over a range of concentrations (0.01-1000 nM). Drug was dosed in 0.1% (v/v) DMSO in media. After treatment, cells were washed with PBS to remove excess of free drug and nanoparticles and the cells were cultured with fresh media, with half-media exchanges every other day. The MDM were challenged with HIV-1ADA at a MOI of 0.01 infectious viral particles/cell for up to 30 days. Progeny virion production was measured by RT activity in culture medium (Kalter, et al. (1992) J. Clin. Microbiol., 30(4):993-995).

Take `C[C@H]1CO[C@@H]2Cn3cc(C(=O)NCc4ccc(F)cc4F)c(=O)c(O)c3C(=O)N12` [CAB, cabotegravir]: the “4×PA-IC90” value in the test on HIV-1 is 0.66 µg/mL.

`C[C@@H]1CCO[C@H]2Cn3cc(C(=O)NCc4ccc(F)cc4F)c(=O)c(O)c3C(=O)N12` [DTG, dolutegravir]: in the test with HIV-1, the “4×PA-IC90” value is 0.256 µg/mL. For the same molecule, in the test with HIV-1 (protein-adjusted 90% inhibitory concentration), the PA-IC90 was 0.064 µg/mL.

As to `C[C@@H]1CCO[C@H]2Cn3cc(C(=O)NCc4ccc(F)cc4F)c(=O)c(OC(=O)CCCCCCCC(=O)Oc4c5n(cc(C(=O)NCc6ccc(F)cc6F)c4=O)C[C@@H]4OCC[C@@H](C)N4C5=O)c3C(=O)N12` [M3DTG], the “antiretroviral activity (HIV-1 RT activity)” value in the test with HIV-1ADA is given as “significant antiretroviral activity”.
